SMILES strings stand for the structures. Where a SMILES comes first, the peptide text is derived from it. [ ]: non-standard residue; d: D form. The star is where a group is joined. NHCH2CH2OH = OCCN*; For = O=C*

The nature of data set [1]: H+/Na+ transport assay of bead-derived peptides (one-point).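 Further: relative to parent gramicidin A activity set to 1.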 The class given is biochemical. Further details: key: relative activity; mean of two control wells = 1.00. Conditions: bead-derived peptide solution, EYPC/EYPG LUVs. In short, it runs like this: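 Miniaturized 96-well format. LUVs with entrapped pyranine (1.0 mM) were exposed to peptide for 30 min at RT. Intensities were expressed relative to full lysis by Triton X-100 and no treatment, with control-well mean = 1.00.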

Data set [2] deals with P388 mouse leukemia cells. Conditions: 92 h. An outline of the steps: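 Peptide stocks diluted 250× in growth medium; P388 cells 1 × 10^4 cells/mL final; 37 °C, 5% CO2, 92 h. WST-1 + 1-methoxy PMS, 4 h, A415. Output: % viability.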
The test system of data set [3] is Streptococcus pyogenes SSI-9. The data set is described as follows: Antibacterial activity assay of bead-derived peptides (three concentrations). The class given is cell-based. More on the design: key: +++: inhibition by the 640-fold diluted peptide solution; ++: inhibition by the 160-fold diluted solution; +: inhibition by the 40-fold diluted solution; -: no inhibition. Conditions: S. pyogenes, bead-derived peptide solution, three concentrations. An outline of the steps:
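First, each peptide stock was diluted 4- and 16-fold in DMSO; next, the three solutions were mixed with S. pyogenes SSI-9 suspension (2 × 10^5 CFU) in cation-adjusted Mueller Hinton Broth plus 5% laked horse blood; finally, plates stood 18 h at 37 °C before checking for grown-cell precipitation.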

In the case of `CNC(=O)C[C@@H](NC(=O)[C@H](C)NC(=O)[C@@H](CC(C)C)NC(=O)[C@H](C)NC(=O)CNC(=O)[C@@H](NC=O)C(C)C)C(=O)N[C@H](C(=O)N[C@@H](C(=O)N[C@@H](Cc1c[nH]c2ccccc12)C(=O)N[C@H](CC(C)C)C(=O)N[C@@H](Cc1c[nH]c2ccccc12)C(=O)N[C@@H](C(=O)N[C@@H](Cc1c[nH]c2ccccc12)C(=O)N[C@H](CC(C)C)C(=O)N[C@@H](Cc1c[nH]c2ccccc12)C(=O)NCCO)C(C)C)C(C)C)C(C)C` [compound 8265] (For-VGA[dL]A[dD](NHMe)V[dV]W[dL]W[dV]W[dL]W-NHCH2CH2OH), the “H+/Na+ transport activity normalized against the value of 1 (1.00)” value in data set [1] came to 1.12. In data set [2], this compound returned a cell viability/% of 68.3%. Also, the antibacterial activity entry in data set [3] is “-”.
For `CC(C)C[C@@H](NC(=O)[C@H](C)NC(=O)CNC(=O)[C@@H](NC=O)C(C)C)C(=O)N[C@@H](C)C(=O)N[C@H](CC(C)C)C(=O)N[C@H](C(=O)N[C@H](CC(C)C)C(=O)N[C@@H](Cc1c[nH]c2ccccc12)C(=O)N[C@H](CC(C)C)C(=O)N[C@@H](Cc1c[nH]c2ccccc12)C(=O)N[C@H](CC(C)C)C(=O)N[C@@H](Cc1c[nH]c2ccccc12)C(=O)N[C@@H](C(=O)N[C@@H](Cc1c[nH]c2ccccc12)C(=O)NCCO)C(C)C)C(C)C` [compound 10340] (For-VGA[dL]A[dL]V[dL]W[dL]W[dL]W[dV]W-NHCH2CH2OH) the same measures were 1.00, 3.4% and “-”.
The matching figures for `CNC(=O)C[C@@H](NC(=O)[C@H](Cc1c[nH]c2ccccc12)NC(=O)[C@H](NC(=O)[C@H](Cc1c[nH]c2ccccc12)NC(=O)[C@H](NC(=O)[C@H](Cc1c[nH]c2ccccc12)NC(=O)[C@@H](CC(C)C)NC(=O)[C@@H](NC(=O)[C@H](NC(=O)[C@H](C)NC(=O)[C@@H](CC(C)C)NC(=O)[C@H](C)NC(=O)CNC(=O)[C@@H](NC=O)C(C)C)C(C)C)C(C)C)C(C)C)C(C)C)C(=O)N[C@@H](Cc1c[nH]c2ccccc12)C(=O)NCCO` [compound 8567] (For-VGA[dL]A[dV]V[dL]W[dV]W[dV]W[dD](NHMe)W-NHCH2CH2OH): 1.22, 60.9% and “-”.
For `CNC(=O)C[C@@H](NC(=O)[C@@H](NC(=O)[C@H](NC(=O)[C@H](C)NC(=O)[C@H](NC(=O)[C@H](C)NC(=O)CNC(=O)[C@@H](NC=O)C(C)C)C(C)C)C(C)C)C(C)C)C(=O)N[C@@H](Cc1c[nH]c2ccccc12)C(=O)N[C@H](CC(C)C)C(=O)N[C@@H](Cc1c[nH]c2ccccc12)C(=O)N[C@H](CC(C)C)C(=O)N[C@@H](Cc1c[nH]c2ccccc12)C(=O)N[C@H](CC(C)C)C(=O)N[C@@H](Cc1c[nH]c2ccccc12)C(=O)NCCO` [compound 8982] (For-VGA[dV]A[dV]V[dD](NHMe)W[dL]W[dL]W[dL]W-NHCH2CH2OH) the same measures were 1.21, 49.1% and “-”.
Consider `CC(C)C[C@@H](NC(=O)[C@H](C)NC(=O)[C@H](NC(=O)[C@H](C)NC(=O)CNC(=O)[C@@H](NC=O)C(C)C)C(C)C)C(=O)N[C@H](C(=O)N[C@H](CC(C)C)C(=O)N[C@@H](Cc1c[nH]c2ccccc12)C(=O)N[C@H](CC(C)C)C(=O)N[C@@H](Cc1c[nH]c2ccccc12)C(=O)N[C@@H](C(=O)N[C@@H](Cc1c[nH]c2ccccc12)C(=O)N[C@H](CC(C)C)C(=O)N[C@@H](Cc1c[nH]c2ccccc12)C(=O)NCCO)[C@H](C)O)C(C)C` [compound 4209] (For-VGA[dV]A[dL]V[dL]W[dL]W[dT]W[dL]W-NHCH2CH2OH), for which, in data set [1], the “H+/Na+ transport activity normalized against the value of 1 (1.00)” value stood at 1.33. For the same compound, the cell viability/% in data set [2] is on record as 96.2%. Moreover, in data set [3], the antibacterial activity result is listed as “-”.

Values taken from paper PMC7531004, “Discovery of gramicidin A analogues with altered activities by multidimensional screening of a one-bead-one-compound library” (Nature Communications, 2020).
